Measured values from ChEMBL document CHEMBL1135712, “Structure-activity relationships for pyrido-, imidazo-, pyrazolo-, pyrazino-, and pyrrolophenazinecarboxamides as topoisomerase-targeted anticancer agents” (J Med Chem, 2002).

Tests used:
[1] = tested on: Lewis lung carcinoma cell line; test: Inhibitory concentration to reduce cell number to 50% in a panel of cultured, murine Lewis lung carcinoma (LL) cells.; type: functional, cell-based; settings: Mus musculus
[2] = Ratio of IC50 in the cell -amsacrine-resistant Jurkat (JL A) / JL C; type: functional
[3] = tested on: NCI-H69; test: Inhibitory activity against drug resistant H69/LX4 line overexpressing P-glycoprotein; type: functional, cell-based; settings: Homo sapiens
[4] = tested on: P388; test: Inhibitory activity against murine P388 leukemia (P388) cells.; type: functional, cell-based; settings: Mus musculus
[5] = Ratio of IC50 in the cell -doxorubicin-resistant Jurkat (JL D) / JL C; type: functional
[6] = tested on: NCI-H69; test: Inhibitory activity against parental human small cell lung carcinoma cell line (H69P); type: functional, cell-based
[7] = Inhibitory concentration to reduce cell number to 50% in a panel of cultured, wild type human Jurkat leukemia (JL C) cells.; type: functional, cell-based
[8] = tested on: P388 (Mus musculus); test: Inhibitory concentration to reduce cell number to 50% in a panel of cultured, murine P388 leukemia (P388) cells.

Row | IC50 [1] [nM] | IC50 ([3]; read-out: IC50) [nM] | IC50 [4] [nM] | IC50 [7] [nM] | IC50 [8] [nM] | IC50 [3] [nM] | SMILES | Ratio [2] | Ratio [5] | IC50 [6] [nM]
1 | 41 | 5.2 | 300 | 159 | – | – | CN(C)CCNC(=O)c1cccc2nc3ccc4[nH]cnc4c3nc12 | 0.8 | 0.9 | 183
2 | 66 | 0.95 | 98 | 194 | – | – | CN(C)CCNC(=O)c1cccc2nc3ccc4c[nH]nc4c3nc12 | 1.1 | – | 524
3 | 25 | 1.2 | – | 98 | 59 | – | CN(C)CCNC(=O)c1cccc2nc3ccc4c(cnn4C)c3nc12 | 0.8 | 0.8 | 130
4 | 2.4 | 1.2 | 14 | 17 | – | – | COc1nccc2c1ccc1nc3cccc(C(=O)NCCN(C)C)c3nc12 | 0.7 | 0.7 | 21
5 | – | 1.2 | – | – | – | – | COc1nccc2c1ccc1nc3cccc(C(=O)N[C@H](CO)CN(C)C)c3nc12 | – | – | 24
6 | 6.4 | 0.64 | 5.6 | 28 | – | – | CN(C)CCNC(=O)c1cccc2nc3ccc4cnccc4c3nc12 | 3 | 2.8 | 88
7 | – | 1.4 | 9.4 | – | – | – | COc1cccc2c1ccc1nc3cccc(C(=O)NCCN(C)C)c3nc12 | – | – | 35
8 | 20 | 1.2 | 42 | 74 | – | – | CN(C)CCNC(=O)c1cccc2nc3ccc4ncccc4c3nc12 | 0.8 | 0.7 | 124
9 | 54 | 1.5 | 85 | 165 | – | – | CN(C)CCNC(=O)c1cccc2nc3ccc4nccnc4c3nc12 | 1 | 0.9 | 234
10 | 23 | 1.9 | 37 | 93 | – | – | CN(C)CCNC(=O)c1cccc2nc3ccc4ccccc4c3nc12 | 0.8 | 0.9 | 67
11 | – | > 4 | 2700 | – | – | – | CN(C)CCNC(=O)c1cccc2nc3ccc4c(O)ccnc4c3nc12 | – | – | 2100
12 | – | 1.2 | – | – | – | – | COc1nccc2c1ccc1nc3cccc(C(=O)N[C@H](C)CN(C)C)c3nc12 | – | – | 24
13 | 5.9 | 0.92 | 8.4 | 44 | – | – | CN(C)CCNC(=O)c1cccc2nc3ccc4cnn(C)c4c3nc12 | 1 | 1.1 | 109
14 | – | 3.2 | – | – | – | – | COc1ccnc2c1ccc1nc3cccc(C(=O)NCCN(C)C)c3nc12 | – | – | 123
15 | 11 | 1.3 | 16 | 79 | – | – | CN(C)CCNC(=O)c1cccc2nc3ccc4ccncc4c3nc12 | 0.8 | 1 | 116
16 | – | 1.2 | 10 | – | – | – | COc1cccc2c1ccc1nc3cccc(C(=O)N[C@H](C)CN(C)C)c3nc12 | – | – | 23
17 | – | 1.7 | 220 | – | – | – | CN(C)CCNC(=O)c1cccc2nc3ccc4c(ccn4C)c3nc12 | – | – | 183
18 | – | – | – | 9.6 | – | 137 | COc1cccc2c1C(=O)c1c(O)c3c(c(O)c1C2=O)C[C@@](O)(C(=O)CO)C[C@@H]3O[C@H]1C[C@H](N)[C@H](O)[C@H](C)O1 [DOXORUBICIN] | – | – | –
19 | 4.1 | 4.5 | 6.8 | 21 | – | – | CN(C)CCNC(=O)c1cccc2nc3ccc4[nH]ncc4c3nc12 | 4.2 | 4.7 | 107
20 | 89 | 2.1 | – | 317 | – | – | CN(C)CCNC(=O)c1cccc2nc3ccc4cccnc4c3nc12 | 0.7 | 0.9 | 294
21 | – | 1.05 | 31 | – | – | – | CN(C)CCNC(=O)c1cccc2nc3ccc4c(O)nccc4c3nc12 | – | – | 133
22 | 1850 | – | 1100 | 2500 | – | – | CN(C)CCNC(=O)c1cccc2nc3ccccc3nc12 | 0.8 | 1 | –
